The values below are quoted from earlier work in US8470831B2, “Acrylamido derivatives useful as inhibitors of the mitochondrial permeability transition” (Cogenia SRL, priority 2008, dated 2013).

For series [1] the following is noted: rat, TNF-α-dependent acute inflammatory hepatitis.
The conditions of series [2]: patients, one month treatment.
Series [3] concerns rat liver mitochondrial membranes.
For series [4] the following is noted: mdx and Scgd-/- mice.
For series [5] the following is noted: mouse, myocardial infarction and reperfusion injury.
The conditions of series [6]: rat, transient focal cerebral ischemia.

Cyclosporin A: the liver damage entry in series [1] is reported as “strongly reduces liver damage”. Besides, in series [2], the mitochondrial function entry is recorded as “amelioration of mitochondrial function”.

With `COc1ccc(CN2CCN(CCCSc3cc(C(C)(C)C)c(O)c(C(C)(C)C)c3)CC2)c(OC)c1OC` [Compound S-15176, N-[(3,5-di-tert-butyl-4-hydroxy-1-thiophenyl)]-3-propyl-N′-(2,3,4-trimethoxybenzyl)piperazine], in series [3], the “mitochondrial membrane depolarization and respiration uncoupling” value is “induces depolarization of the mitochondrial membrane and respiration uncoupling”.

Consider `C/C=C/C[C@@H](C)[C@@H](O)[C@H]1C(=O)N[C@@H](CC)C(=O)N(C)[C@H](C)C(=O)N(CC)[C@@H](C(C)C)C(=O)N[C@@H](C(C)C)C(=O)N(C)[C@@H](CC(C)C)C(=O)N[C@@H](C)C(=O)N[C@H](C)C(=O)N(C)[C@@H](CC(C)C)C(=O)N(C)[C@@H](CC(C)C)C(=O)N(C)[C@@H](C(C)C)C(=O)N1C` [Debio-025], for which the “mitochondrial swelling and necrotic disease” value in series [4] is “reduced mitochondrial swelling and necrotic disease”. Besides, the infarct size entry in series [5] is listed as “reduced infarct size”.

With `C/C=C/C[C@@H](C)[C@@H](O)[C@H]1C(=O)N[C@@H](CC)C(=O)N(C)CC(=O)N(C)[C@@H]([C@@H](C)CC)C(=O)N[C@@H](C(C)C)C(=O)N(C)[C@@H](CC(C)C)C(=O)N[C@@H](C)C(=O)N[C@H](C)C(=O)N(C)[C@@H](CC(C)C)C(=O)N(C)[C@@H](CC(C)C)C(=O)N(C)[C@@H](C(C)C)C(=O)N1C` [NIM811], the protection in series [6] is 40%.
